According to patent US7479561B2, “4-(2,4-dichloro-5-methoxyphenyl)amino-6-methoxy-7-{[5-substituted-amino)methyl]-3-furyl}-3-quinolinecarbonitriles as kinase inhibitors” (Wyeth, priority 2004, dated 2009):
Several values for one entry are separate records, joined by “and”; a condition that tells them apart may be missing. Identical values can stand only once. Like-named read-outs stand apart in the source and are kept apart here.

Tests used:
[1] = target: T1, Recombinant human Src enzyme (Homo sapiens, UniProt P12931); assay: Src Kinase Assay (LANCE FRET); type: biochemical
T1 construct: purchased PanVera P3044
T1 sequence (P12931 whole entry): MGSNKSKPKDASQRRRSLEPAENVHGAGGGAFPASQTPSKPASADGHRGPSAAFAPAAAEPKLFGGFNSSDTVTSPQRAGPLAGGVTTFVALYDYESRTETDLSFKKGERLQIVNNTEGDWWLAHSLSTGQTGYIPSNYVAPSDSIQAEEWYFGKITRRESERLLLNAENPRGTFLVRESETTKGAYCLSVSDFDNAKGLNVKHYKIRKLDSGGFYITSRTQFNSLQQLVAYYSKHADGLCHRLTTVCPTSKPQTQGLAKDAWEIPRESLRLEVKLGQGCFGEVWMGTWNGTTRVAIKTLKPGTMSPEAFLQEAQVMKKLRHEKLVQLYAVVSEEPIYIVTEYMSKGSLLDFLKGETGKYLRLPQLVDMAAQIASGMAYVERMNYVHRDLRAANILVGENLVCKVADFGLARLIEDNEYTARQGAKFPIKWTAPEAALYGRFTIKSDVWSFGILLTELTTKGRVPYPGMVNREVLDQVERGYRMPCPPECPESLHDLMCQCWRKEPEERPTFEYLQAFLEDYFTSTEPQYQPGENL
Experimental: Recombinant human Src enzyme was obtained from PanVera (P3044). […] Homogeneous fluorescence resonance energy transfer kinase assays were performed using the europium/APC detection format (LANCE, Perkin Elmer). Src enzyme (10 ng) was mixed with biotinylated peptide (final concentration 2 μM), 50 mM Hepes (pH 7.5), 10 mM MgCl2, 20 ug/ml BSA, 0.001% Brij-35 (Sigma), 100 μM ATP, 1% DMSO. The kinase reaction was incubated for 70 min at 37° C. The reaction was stopped with EDTA at a final concentration of 30 mM EDTA/25 mM Hepes (pH 7.5)/10 μg/ml BSA. The mixture was combined with Eu-labeled anti-phosphotyrosine antibody PT66 (Perkin Elmer, AD0068) and Streptavidin Surelight-APC (Perkin Elmer, CR130-100) in 50 mM Hepes (pH 7.5)/20 μg/ml BSA, and incubated for 30 min according to manufacturer's specifications. […] Multiple entries for a given compound indicate that it was tested multiple times.

[2] = target: Rat2 fibroblasts stably transformed with v-Src/Hu c-Src fusion gene (Homo sapiens, UniProt P12931, cells depend on it, form not given); assay: Anchorage Independent Src-transformed Fibroblast Proliferation Assay; type: cell-based, rat
Rat2 fibroblasts stably transformed with v-Src/Hu c-Src fusion gene, sequence (P12931 whole entry, stated change not applied, the tested form may be a part): as the sequence (P12931 whole entry) above
From the text: Rat2 fibroblasts stably transformed with a plasmid containing a CMV promotor controlled v-Src/Hu c-Src fusion gene in which the catalytic domain of human c-Src was inserted in place of the v-Src catalytic domain in the v-Src gene are used for the measurement of src dependent suspension growth.

Wild type c-Abl = target: T2, Wild type c-Abl (Homo sapiens, UniProt P00519); assay: Abl Kinase Assay (LANCE FRET); type: biochemical; conditions: 100 μM ATP; read-out: c-Abl enzyme IC50
T2 construct: purchased Panvera P3049
T2 sequence (P00519 whole entry): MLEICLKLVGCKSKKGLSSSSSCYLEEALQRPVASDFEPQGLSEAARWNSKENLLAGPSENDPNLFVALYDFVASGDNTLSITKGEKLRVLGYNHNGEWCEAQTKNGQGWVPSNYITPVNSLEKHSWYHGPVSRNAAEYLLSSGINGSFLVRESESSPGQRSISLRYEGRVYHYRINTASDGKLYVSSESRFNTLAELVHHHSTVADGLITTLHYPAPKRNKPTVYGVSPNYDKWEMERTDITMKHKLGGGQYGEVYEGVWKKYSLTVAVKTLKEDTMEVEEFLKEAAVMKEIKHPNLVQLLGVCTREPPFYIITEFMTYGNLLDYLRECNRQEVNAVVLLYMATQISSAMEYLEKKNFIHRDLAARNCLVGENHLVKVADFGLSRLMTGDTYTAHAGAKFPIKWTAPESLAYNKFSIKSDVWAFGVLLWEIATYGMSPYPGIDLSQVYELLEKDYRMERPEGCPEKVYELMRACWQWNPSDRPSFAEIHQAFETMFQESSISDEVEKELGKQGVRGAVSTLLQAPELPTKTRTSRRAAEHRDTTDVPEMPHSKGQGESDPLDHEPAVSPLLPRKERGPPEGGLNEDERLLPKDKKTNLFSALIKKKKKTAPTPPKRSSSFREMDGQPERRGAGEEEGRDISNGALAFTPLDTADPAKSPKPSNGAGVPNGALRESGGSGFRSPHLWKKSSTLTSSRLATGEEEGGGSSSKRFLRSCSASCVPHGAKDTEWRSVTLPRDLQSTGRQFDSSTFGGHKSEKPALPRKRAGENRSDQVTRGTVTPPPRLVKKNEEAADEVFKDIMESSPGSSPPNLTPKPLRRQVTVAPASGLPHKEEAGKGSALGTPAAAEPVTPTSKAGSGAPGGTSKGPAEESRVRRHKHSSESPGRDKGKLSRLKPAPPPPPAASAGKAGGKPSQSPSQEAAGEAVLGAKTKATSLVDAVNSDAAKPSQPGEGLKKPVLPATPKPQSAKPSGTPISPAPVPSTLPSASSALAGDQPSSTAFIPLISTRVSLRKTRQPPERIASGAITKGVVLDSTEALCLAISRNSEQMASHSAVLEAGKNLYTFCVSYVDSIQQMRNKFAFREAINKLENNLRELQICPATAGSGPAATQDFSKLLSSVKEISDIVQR
Experimental: Wild type c-Abl was purchased from Panvera (P3049). Biotinylated peptide for the Abl kinase assay was obtained from Synpep (Biotin-NH-[…]-COOH). Homogeneous fluorescence resonance energy transfer kinase assays were performed using the europium/APC detection format (LANCE, Perkin Elmer). Abl enzyme (2.5 ng c-Abl) was mixed with biotinylated peptide (final concentration 2 μM), 50 mM Hepes (pH 7.5), 10 mM MgCl2, 20 ug/ml BSA, and 0.001% Brij-35 (Sigma). Compound was added with a final DMSO concentration of 1%, and incubated for ten minutes at 27° C. The kinase reaction was initiated by addition of ATP to a final concentration of 100 μM, and incubated for 30 minutes at 27° C. The reaction was stopped with EDTA at a final concentration of 30 mM EDTA/25 mM Hepes (pH 7.5)/10 μg/ml BSA. The mixture was combined with Eu-labeled phosphotyrosine antibody PT66 (Perkin Elmer, AD0068) and Streptavidin Surelight-APC (Perkin Elmer, CR130-100) in 50 mM Hepes (pH 7.5)/20 μg/ml BSA, and incubated for 30 minutes according to manufacturer's specifications. The reaction was monitored on a Wallac Victor with excitation at 340 nm and emission at 665 nm. Data was analyzed with the LSW data analysis plug-in for Excel (Microsoft).

K562 Cells = assay: K562 cell assay; type: cell-based; conditions: Homo sapiens
Experimental: (§1) The cell assays were performed as noted in Cancer Research 63, 375-381 (2003).

KU812 Cells = assay: KU812 cell assay; type: cell-based; conditions: Homo sapiens
Experimental: as §1

HT29 cells = assay: HT29 Xenograft Assay; type: in vivo; conditions: 100 mg/kg oral gavage once a day for 14 days; at day 14; female nude mice
Experimental: All animal studies were conducted under an approved Institutional Animal Care and Use Committee protocol. HT29 cells were suspended to 50 million cells/ml and 0.2 ml of the cell suspension was injected into 6-7 weeks old female nude mice (Charles River, Wilmington, Mass.). […] At day 14 the T/C (growth of tumors in treated animals/growth of tumors in control animals) was 0.53.

[3] = target: T3, Rat2 fibroblasts stably transformed with v-Src/Hu Lck fusion gene (Homo sapiens, UniProt P06239, cells depend on it, form not given); assay: Anchorage Independent Lck-transformed Fibroblast Proliferation Assay; type: cell-based, rat; conditions: suspension growth, MTS on Day 5; multiple entries = tested multiple times; read-out: Lck cells IC50
T3 construct: fused on or other part: v-Src of Rous sarcoma virus outside the catalytic domain (N-terminal unique/SH3/SH2 region and C-terminal tail); candidates are Schmidt-Ruppin A (P00524) and Prague C (P00526)
T3 sequence (P06239 whole entry, change not shown, the tested form may be a part): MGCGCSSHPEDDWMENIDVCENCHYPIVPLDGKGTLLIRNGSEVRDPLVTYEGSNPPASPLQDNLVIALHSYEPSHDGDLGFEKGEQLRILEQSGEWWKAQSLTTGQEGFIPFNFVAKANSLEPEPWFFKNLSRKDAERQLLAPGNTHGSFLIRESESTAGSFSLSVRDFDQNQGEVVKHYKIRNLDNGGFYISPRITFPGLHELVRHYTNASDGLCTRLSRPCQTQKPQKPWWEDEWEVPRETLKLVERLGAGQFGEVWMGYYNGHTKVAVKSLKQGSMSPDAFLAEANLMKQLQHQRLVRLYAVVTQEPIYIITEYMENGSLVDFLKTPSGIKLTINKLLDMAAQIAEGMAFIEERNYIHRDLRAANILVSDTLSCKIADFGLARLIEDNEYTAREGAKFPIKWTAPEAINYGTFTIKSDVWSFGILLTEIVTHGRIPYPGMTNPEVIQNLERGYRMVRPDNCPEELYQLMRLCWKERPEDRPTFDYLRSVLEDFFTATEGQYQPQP
From the text: Rat2 fibroblasts stably transformed with a plasmid containing a CMV promotor controlled v-Src/Hu Lck fusion gene in which the catalytic domain of human Lck was inserted in place of the v-Src catalytic domain in the v-Src gene are used for the measurement of src dependent suspension growth.

[4] = 100 μM ATP, multiple entries = tested multiple times, read-out: Src enzyme IC50
[5] = single value, read-out: Src Enzyme IC50
[6] = single value, read-out: Src Cell IC50
[7] = suspension growth, MTS on Day 5, multiple entries = tested multiple times, read-out: Src cells IC50

IC50 [1, 4]	melting point	GI50 [3]	SMILES	further results
1 nM and 0.6 nM and 0.7 nM	179 to 181 °C	–	COc1cc(Nc2c(C#N)cnc3cc(-c4coc(CN5CCN(C)CC5)c4)c(OC)cc23)c(Cl)cc1Cl [Example 1]	IC50 [1, 5]: 0.8 nM; GI50 [2, 6]: 15 nM; GI50 [2, 7]: 16 nM; IC50 (Wild type c-Abl): 0.4 nM and 0.27 nM and 0.25 nM; IC50 (K562 Cells): 5.6 nM; IC50 (KU812 Cells): 6 nM; T/C (growth of tumors in treated animals/growth of tumors in control animals) (HT29 cells): 0.53
–	201 to 203 °C	353 nM and 447 nM	COc1cc(Nc2c(C#N)cnc3cc(-c4coc(CN5CCN(c6ccccc6)CC5)c4)c(OC)cc23)c(Cl)cc1Cl [Example 4, 4-[(2,4-Dichloro-5-methoxyphenyl)amino]-6-methoxy-7-{5-[(4-phenylpiperazin-1-yl)methyl]-3-furyl}-3-quinolinecarbonitrile]	–
2.5 nM and 3 nM	–	–	COc1cc(Nc2c(C#N)cnc3cc(-c4coc(CN5CCN(Cc6ccncc6)CC5)c4)c(OC)cc23)c(Cl)cc1Cl [Example 34, 4-[(2,4-dichloro-5-methoxyphenyl)amino]-6-methoxy-7-(5-{[4-(pyridin-4-ylmethyl)piperazin-1-yl]methyl}-3-furyl)quinoline-3-carbonitrile]	–
3.2 nM and 5.6 nM	–	–	COc1cc(Nc2c(C#N)cnc3cc(-c4coc(CN5CCN(c6c(C)cccc6C)CC5)c4)c(OC)cc23)c(Cl)cc1Cl [Example 35, 4-[(2,4-dichloro-5-methoxyphenyl)amino]-7-(5-{[4-(2,6-dimethylphenyl)piperazin-1-yl]methyl}-3-furyl)-6-methoxyquinoline-3-carbonitrile]	–

More lines, now with the values behind:

SMILES	IC50 [1, 4]	melting point	GI50 [3]	further results
COc1cc(Nc2c(C#N)cnc3cc(-c4coc(CN(C)C)c4)c(OC)cc23)c(Cl)cc1Cl [Example 2, 4-[(2,4-Dichloro-5-methoxyphenyl)amino]-6-methoxy-7-{5-[(dimethylamino)methyl]-3-furyl}-3-quinolinecarbonitrile]	–	133 to 138 °C	11 nM	–
COc1cc(Nc2c(C#N)cnc3cc(-c4coc(CN5CCOCC5)c4)c(OC)cc23)c(Cl)cc1Cl [Example 3, 4-[(2,4-Dichloro-5-methoxyphenyl)amino]-6-methoxy-7-[5-(morpholin-4-ylmethyl)-3-furyl]-3-quinolinecarbonitrile]	–	164 to 166 °C	–	–
COc1ccc(N2CCN(Cc3cc(-c4cc5ncc(C#N)c(Nc6cc(OC)c(Cl)cc6Cl)c5cc4OC)co3)CC2)c(OC)c1 [Example 5, 4-[(2,4-Dichloro-5-methoxyphenyl)amino]-6-methoxy-7-(5-{[4-(2,4-dimethoxyphenyl)piperazin-1-yl]methyl}-3-furyl)-3-quinolinecarbonitrile]	3.5 nM and 3.1 nM	223 to 225 °C	246 nM and 203 nM and 239 nM	GI50 [2, 7]: 19 nM and 17 nM
CCN(CC)CCCN1CCN(Cc2cc(-c3cc4ncc(C#N)c(Nc5cc(OC)c(Cl)cc5Cl)c4cc3OC)co2)CC1 [Example 33, 4-[(2,4-dichloro-5-methoxyphenyl)amino]-7-[5-({4-[3-(diethylamino)propyl]piperazin-1-yl}methyl)-3-furyl]-6-methoxyquinoline-3-carbonitrile]	2 nM	–	–	–
c1ccsc1 [thiophene, reference compound]	–	–	–	IC50 [1, 5]: 3.7 nM; GI50 [2, 6]: 94 nM
